The values below come from publication PMC10424187, “Structure-Guided Design and Synthesis of a Pyridazinone Series of Trypanosoma cruzi Proteasome Inhibitors” (Journal of Medicinal Chemistry, 2023).

≈ marks a conversion by molar mass, not a printed value. Where “and” joins values, the source holds several entries; their conditions need not be identical. Identical values can stand only once.

Data set [1] deals with intracellular T. cruzi X10/7 A1 amastigotes.
The nature of another data set: ChromLogD. The note with it: pH 7.4; read-out: Chrom LogDpH7.4. The data set is classed as physicochemical. The protocol: Chrom LogD was measured as previously described:
solubility and hydrophobicity. Drug Discov. Today 2010, 15, 648−655. […]

Data set [2] can be described thus: Mouse microsomal intrinsic clearance. The note with it: mouse liver microsomes, scaling 52.5 mg microsomal protein/g liver. The data set is classed as in vitro ADME. On the procedure:
Mouse microsomal intrinsic clearance.
This assay was conducted as previously described:
J.; Reid, I. H.; Hill, A. P.;
(§1) were prepared by adding a volume (5 µL) of the 10 mM solution to a volume (195 µL) of […]

For another data set, the target named is T. cruzi proteasome (Trypanosoma cruzi, UniProt V5BU39+V5C017). In words: T. cruzi proteasome assay (chymotrypsin-like activity, Suc-LLVY-Rho-110-DPro). The settings on record: for Tc Prot Hill Slope / Tc Prot Max Response (%): individual replicate; for Emax: read-out: Tc Prot Max Response (%), individual replicate.
A short description of data set [3]: Kinetic aqueous solubility (UHPLC, PBS pH 7.4). The settings on record: phosphate buffered saline, UHPLC UV/MS. The data set is classed as physicochemical. On the procedure: This assay was conducted as previously described: […]
as §1
format). Samples were then drawn through the filter using vacuum. The filtrate from the above […]
formic acid gradient elution. The UHPLC parameters are shown below:
Gradient program: Initial: 98% A, 2% B
Re-equilibration time: 0.6 min
Autosampler temperature: 25°C
Detector wavelength: 254 nm

A further data set concerns the target Human 20S proteasome (Homo sapiens, UniProt P28074+P49721). Briefly: human proteasome assay (chymotrypsin-like activity, Suc-LLVY-Rho-110-DPro). The note with it: for Emax: read-out: Hs Prot Max Response (%), individual replicate.
The mark [4] stands for this setting: T. cruzi Prot pIC50, mean of at least three independent replicates.
[5] abbreviates: Tc Prot pIC50, individual replicate.
Setting [6] is: mean of at least three independent replicates.

Sequence of T. cruzi proteasome (V5BU39 entry or part of it): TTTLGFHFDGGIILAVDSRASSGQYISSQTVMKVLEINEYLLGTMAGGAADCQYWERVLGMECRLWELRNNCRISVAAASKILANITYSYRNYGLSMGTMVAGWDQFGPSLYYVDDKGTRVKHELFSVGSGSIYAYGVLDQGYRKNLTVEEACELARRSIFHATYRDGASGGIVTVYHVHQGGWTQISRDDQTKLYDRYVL
Sequence of T. cruzi proteasome (V5C017 entry or part of it): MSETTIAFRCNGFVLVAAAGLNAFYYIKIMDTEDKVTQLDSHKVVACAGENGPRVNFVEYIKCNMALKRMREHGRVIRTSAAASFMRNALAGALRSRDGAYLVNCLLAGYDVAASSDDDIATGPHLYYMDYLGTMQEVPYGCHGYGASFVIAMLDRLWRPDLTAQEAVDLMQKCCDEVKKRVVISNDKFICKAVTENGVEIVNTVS
Procedure for Human 20S proteasome: T. cruzi and human proteasome assays
(§2) The T. cruzi proteasome was partially purified as described in the above reference and Human
(§3) 20S proteasome was purchased from Boston Biochem (now R&D Systems, catalogue number
(§4) a Tecan Fluent to titrate over 11 points in Labcyte Echo-compatible Greiner Bio-One 384 well
(§5) polypropylene microplates. Subsequently, 100 nl of test compound titrations were transferred
(§6) to black Greiner Bio-One low volume 384 well microplates using a Labcyte Echo acoustic
(§7) 50 mM HEPES pH 7.5, 150 mM sodium chloride, 5% Glycerol, 1 mM dithiothreitol, 1 mM
(§8) CHAPS in deionised, filtered water (all chemicals purchased from Sigma Aldrich). Human 20S
(§9) These enzyme solutions were prepared immediately prior to assay initiation and stored at 4 °C
(§10) To monitor the Chymotrypsin-like activity of the T. cruzi and Human 20S proteasome proteins
(§11) a self-quenched, Rhodamine 110-labelled peptide with the sequence Suc-LLVY-Rho-110-
(§12) DPro was used (prepared by Cambridge Research Biochemicals. Suc is succinyl, while DPro
(§13) refers to ᴅ-proline). The peptide was initially prepared from solid as a 10 mM solution in 100%
(§14) DMSO and stored at -20 °C. Prior to use in the assay, an aliquot was thawed at room
(§15) to twofold Km. For use with the Human 20S proteasome, the Suc-LLVY-Rho-110-DPro
(§16) peptide was diluted in assay buffer to a concentration equivalent to twofold Km, which for this
(§17) enzyme was 2 μM. The peptide solutions were protected from light and stored at 4 °C before
(§18) A Multidrop Micro (Thermo Fisher), using a low volume dispense cassette, was used to add
(§19) the assay solutions to the test compounds in the low volume 384-well microplates. Prior to
(§20) addition of proteasome solution, 5 μl of assay buffer was added to one column (containing 100
(§21) nl, 100% DMSO) to act as no enzyme control to mimic full inhibition. Subsequently, 5 μl of
(§22) proteasome solution (either T. cruzi or Human 20S) was added to all wells on the test
(§23) microplate apart from the column containing 5 μl assay buffer. The microplate was then spun
(§24) using a suitable bench top centrifuge for 1 minute at 1000 rpm, before incubation at room
(§25) Following the initial incubation, 5 μl of substrate solution was then added to all wells on the
(§26) test microplate using a Multidrop Micro equipped with a discrete low volume dispense cassette.
(§27) The test microplates were then spun for 10 seconds at 1000 rpm before being rapidly moved to
(§28) a multi-mode microplate reader, capable of monitoring fluorescence intensity. The microplate
(§29) reader used for these studies was a Tecan M1000 Pro, equipped with quad monochromators.
(§30) 530 ± 5 nm. A series of fluorescence intensity measurements were taken every 30 seconds for
(§31) Subsequently, the fluorescence intensity measurements (relative fluorescence units, RFU) were
(§32) fit to a simple linear regression model (y = A + Bx, where y refers to the fluorescence intensity
(§33) and x refers to the time in seconds) to determine the initial rate of reaction. The initial rate for
(§34) every compound concentration tested was then fit a 4-parameter logistic model: y = (A + (B -
(§35) A)) / (1 + (x / C)D), where y refers to the assay response, x refers to the inhibitor concentration,
(§36) A and B are the range values (minimum and maximum, respectively), C is the IC50 value and
(§37) D is the slope. Potency values were then reported as pIC50, which is the negative log of the
(§38) IC50 (on a molar scale). Data analysis was automated and carried out using the ActivityBase
Procedure for T. cruzi proteasome: T. cruzi and human proteasome assays
as §2, §3, §4, §5, §6, §7, §8, §9, §10, §11, §12, §13, §14, §15, §16, §17, §18, §19, §20, §21, §22, §23, §24, §25, §26, §27, §28, §29, §30, §31, §32, §33, §34, §35, §36, §37, §38

As usually defined, the EC50 is the concentration giving half of the maximal effect. The low end stands for an effect from little substance, the high end for a need for much substance. By IC50 is commonly meant the concentration at which inhibition is half-maximal. A low value points to higher potency. As usually defined, the solubility is the concentration that dissolves in the medium under given conditions. Low readings indicate a poorly soluble substance, high ones a readily soluble substance. Consider `COc1ncc(Cn2nc(C(=O)Nc3ccc(F)c(C(=O)NC4CC4)c3)ccc2=O)cc1F` [Compound 18, N-(3-(Cyclopropylcarbamoyl)-4-fluorophenyl)-1-((5-fluoro-6-methoxypyridin-3-yl)methyl)-6-oxo-1,6-dihydropyridazine-3-carboxamide], for which the EC50 was 50100 nM in data set [1] and above 50100 nM in the data set on host VERO cells. In addition, the Emax in data set [1] is 53% and 54% and 55% and 67% and 52%; at T. cruzi proteasome, 75%; at Human 20S proteasome, 10%. Further, the chromatographic logD in “ChromLogD” was 5.6. Also, in data set [2], the “Mouse CLi” value came out at 3.5 mL/min/g. Further, the IC50 on T. cruzi proteasome (setting [4]) was 2510 nM; against T. cruzi proteasome (setting [5]), 5010 nM and 1580 nM. Besides, the “Tc Prot Hill Slope” value at T. cruzi proteasome was 1.2 and 1.1. Moreover, the “Tc Prot Max Response (%)” value on T. cruzi proteasome was found to be 80%. The solubility at 24 h in data set [3] is below 1 µM. The “Hs Prot Max Response (%)” value on Human 20S proteasome (individual replicate) turned out to be 13%. Besides, the “Hs Prot pIC50” value on Human 20S proteasome (individual replicate) and on Human 20S proteasome (setting [6]) was below 4 throughout.

In the case of `O=C(Nc1ccc(F)c(C(=O)NC2CC2)c1)c1ccc(=O)n(Cc2ccc(Cl)c(F)c2)n1` [Compound 17, 1-[(4-Chloro-3-fluorophenyl)methyl]-N-[3-(cyclopropylcarbamoyl)-4-fluorophenyl]-6-oxo-pyridazine-3-carboxamide], the results for the 50% effective concentration (EC50) (in data set [1]; with host VERO cells) were 200 nM and above 50100 nM, respectively. Further, the Emax is 90% and 93% in data set [1]; 80% on T. cruzi proteasome. Further, the chromatographic logD in the data set “ChromLogD” was 5.1. Moreover, the “Mouse CLi” value in data set [2] stood at 4.8 mL/min/g. In addition, the IC50 was 25.1 nM against T. cruzi proteasome (setting [4]); 39.8 nM and 20 nM on T. cruzi proteasome (setting [5]). The “Tc Prot Hill Slope” value on T. cruzi proteasome is 0.9 and 1.0. Besides, the “Tc Prot Max Response (%)” value on T. cruzi proteasome was 87% and 86%. In addition, the solubility at 24 h in data set [3] turned out to be 21 µM (≈ 9.64 µg/mL). Also, the “Hs Prot Max Response (%)” value on Human 20S proteasome (individual replicate) is 21% and 22% and 27% and 11%. In addition, the “Hs Prot pIC50” value at Human 20S proteasome (individual replicate) and at Human 20S proteasome (setting [6]) was below 4 each time.

As to `COc1ccc(Cn2nc(C(=O)Nc3ccc(F)c(C(=O)NC4CC4)c3)ccc2=O)cc1C#N` [Compound 16, 1-[(3-Cyano-4-methoxy-phenyl)methyl]-N-[3-(cyclopropylcarbamoyl)-4-fluorophenyl]-6-oxo-pyridazine-3-carboxamide], in data set [1], the EC50 is 158 nM and 200 nM and 126 nM and 100 nM. Besides, the Emax in data set [1] was 91% and 90% and 102% and 87% and 92%; on T. cruzi proteasome it was 72%; at Human 20S proteasome, 4%. The chromatographic logD in the data set “ChromLogD” came to 4. Besides, the “Mouse CLi” value in data set [2] stood at 0.7 mL/min/g. The results for the IC50 against T. cruzi proteasome (setting [4]) and against T. cruzi proteasome (setting [5]) were 10 nM and 12.6 nM, respectively. Besides, the “Tc Prot Hill Slope” value at T. cruzi proteasome is 1.2 and 1.1. The “Tc Prot Max Response (%)” value at T. cruzi proteasome was found to be 62%. The solubility at 24 h in data set [3] is below 1 µM. In addition, the “Hs Prot Max Response (%)” value on Human 20S proteasome (individual replicate) was determined as 5%. The “Hs Prot pIC50” value on Human 20S proteasome (individual replicate) and on Human 20S proteasome (setting [6]) was below 4 throughout.

Take `O=C(Nc1ccc(F)c(C(=O)NC2CC2)c1)c1ccc(=O)n(CC2CCCCC2)n1` [Compound 11, 1-(Cyclohexylmethyl)-N-(3-(cyclopropylcarbamoyl)-4-fluorophenyl)-6-oxo-1,6-dihydropyridazine-3-carboxamide]: the EC50 in data set [1] was 7940 nM and 10000 nM and 5010 nM and 6310 nM; with host VERO cells, above 50100 nM. Moreover, the Emax was 84% and 78% and 86% and 88% in data set [1]; 78% at T. cruzi proteasome; 11% with host VERO cells. Moreover, the chromatographic logD in the data set “ChromLogD” turned out to be 5.3. In data set [2], the “Mouse CLi” value is recorded as 7.3 mL/min/g. Further, the IC50 is 398 nM at T. cruzi proteasome (setting [4]); 501 nM and 316 nM on T. cruzi proteasome (setting [5]). Moreover, the “Tc Prot Hill Slope” value on T. cruzi proteasome was 0.9 and 0.85. The “Tc Prot Max Response (%)” value at T. cruzi proteasome came to 87%. Moreover, the “Hs Prot Max Response (%)” value at Human 20S proteasome (individual replicate) was 13% and 33%. Also, the “Hs Prot pIC50” value on Human 20S proteasome (individual replicate) and at Human 20S proteasome (setting [6]) was below 4 throughout.

With `COc1ccc(Cn2nc(C(=O)Nc3ccc(F)c(C(=O)NC4CC4)c3)ccc2=O)cc1Cl` [Compound 14, 1-[(3-Chloro-4-methoxy-phenyl)methyl]-N-[3-(cyclopropylcarbamoyl)-4-fluorophenyl]-6-oxo-pyridazine-3-carboxamide], in data set [1], the EC50 was 50.1 nM and 39.8 nM and 63.1 nM; the Emax is 92% and 94% and 90% and 93%. For the same compound, in the data set “ChromLogD”, the chromatographic logD is 4.7. Besides, the “Mouse CLi” value in data set [2] was 1.6 mL/min/g. Further, the IC50 at T. cruzi proteasome (setting [4]) was < 10 nM and 3.16 nM. For the same compound, on T. cruzi proteasome (setting [5]), the IC50 was 5.01 nM and 2 nM. Also, on T. cruzi proteasome, the “Tc Prot Hill Slope” value was 0.95 and 0.9; the “Tc Prot Max Response (%)” value came to 86%; the Emax turned out to be 80%. The compound also returned a solubility at 24 h in data set [3] below 1 µM. Also, on Human 20S proteasome (individual replicate), the “Hs Prot Max Response (%)” value was 17% and 49%; the “Hs Prot pIC50” value is below 4. Also, the “Hs Prot pIC50” value at Human 20S proteasome (setting [6]) is on record as below 4. This compound gave an EC50 in the data set with host VERO cells above 50100 nM.

`COc1ccc(Cn2nc(C(=O)Nc3ccc(F)c(C(=O)NCCN4CCOCC4)c3)ccc2=O)cc1` [Compound 21, N-[4-Fluoro-3-(2-morpholinoethylcarbamoyl)phenyl]-1-[(4-methoxyphenyl)methyl]-6-oxo-pyridazine-3-carboxamide]: the EC50 in data set [1] is 1580 nM and 1000 nM; with host VERO cells it was above 50100 nM. For the same compound, the Emax in data set [1] is 95% and 94% and 98% and 96% and 92%; on T. cruzi proteasome it was 80%; on Human 20S proteasome, 9%. The chromatographic logD in the data set “ChromLogD” came to 3.7. Moreover, the “Mouse CLi” value in data set [2] came to 3.6 mL/min/g. For the same compound, the IC50 at T. cruzi proteasome (setting [4]) and on T. cruzi proteasome (setting [5]) was 126 nM in each case. Moreover, the “Tc Prot Hill Slope” value at T. cruzi proteasome was 1.0 and 0.9. In addition, the “Tc Prot Max Response (%)” value on T. cruzi proteasome stood at 72%. The same compound displayed a solubility at 24 h in data set [3] of 200 µM (≈ 102 µg/mL). Also, at Human 20S proteasome (individual replicate), the “Hs Prot Max Response (%)” value is 12%. Also, the “Hs Prot pIC50” value on Human 20S proteasome (individual replicate) and on Human 20S proteasome (setting [6]) was below 4 in each case.

In data set [1], `CN(C(=O)c1cccc(NC(=O)c2ccc(=O)n(Cc3ccccc3)n2)c1)C1CC1` [Compound 7, 1-Benzyl-N-(3-(cyclopropyl(methyl)carbamoyl)phenyl)-6-oxo-1,6-dihydropyridazine-3-carboxamide] yielded an EC50 above 50100 nM and an Emax of 42%. In addition, in “ChromLogD”, the chromatographic logD is 4.5. The “Mouse CLi” value in data set [2] is listed as 19 mL/min/g. Besides, the IC50 at T. cruzi proteasome (setting [4]) was 20000 nM. Besides, at T. cruzi proteasome (setting [5]), the IC50 is 25100 nM and > 100000 nM and 15800 nM. Besides, on T. cruzi proteasome, the “Tc Prot Hill Slope” value was 0.8 and 0.75; the “Tc Prot Max Response (%)” value was 75% and 49% and 40% and 61%. In addition, at Human 20S proteasome (individual replicate), the “Hs Prot Max Response (%)” value was 20% and 27% and 10%; the “Hs Prot pIC50” value is below 4. Moreover, on Human 20S proteasome (setting [6]), the “Hs Prot pIC50” value was below 4. For the same compound, in the data set with host VERO cells, the EC50 was above 50100 nM and the Emax worked out at 11%.

In the case of `COc1ccc(Cn2nc(C(=O)Nc3ccc(F)c(C(=O)NC4CC4)c3)ccc2=O)cc1` [Compound 12, N-[3-(Cyclopropylcarbamoyl)-4-fluorophenyl]-1-[(4-methoxyphenyl)methyl]-6-oxo-pyridazine-3-carboxamide], in data set [1], the EC50 is 398 nM and 316 nM and 501 nM; the Emax was 56% and 99% and 66%. For the same compound, the chromatographic logD in “ChromLogD” stood at 4.2. The “Mouse CLi” value in data set [2] was determined as 2.4 mL/min/g. Further, the IC50 against T. cruzi proteasome (setting [4]) was 31.6 nM. Further, the IC50 against T. cruzi proteasome (setting [5]) was 39.8 nM and 25.1 nM. Further, at T. cruzi proteasome, the “Tc Prot Hill Slope” value is 0.95 and 0.9; the “Tc Prot Max Response (%)” value is 80% and 85%; the Emax worked out at 67%. Besides, the solubility at 24 h in data set [3] was 83 µM (≈ 36.2 µg/mL). Besides, on Human 20S proteasome (individual replicate), the “Hs Prot Max Response (%)” value is 8% and 12% and 18%; the “Hs Prot pIC50” value was below 4. For the same compound, the “Hs Prot pIC50” value on Human 20S proteasome (setting [6]) is reported as below 4.
